e = 2'-O-(2-methoxyethyl) (MOE); d = 2'-deoxy (DNA)
What was measured:
SR-B1 = experiment: Liver SR-B1 mRNA expression (Example 9); assay type: in vivo, mice; conditions: s.c. 6 weeks; for Percent inhibition of liver mRNA expression, SR-B1: percentage increase or decrease compared to PBS control
Experimental: Another group received subcutaneous injections of control oligonucleotide ISIS 141923 at a dose of 50 mg/kg/week for 6 weeks. One group of mice received subcutaneous injections of PBS for 6 weeks. The PBS-injected group served as the control group to which treatment groups were compared.
Liver RNA was isolated for real-time PCR analysis of ABCA1, ApoAI, and SR-B1. ATP-binding cassette transporter ABCA1 (member 1 of human transporter sub-family ABCA), also known as the cholesterol efflux regulatory protein (CERP) is a protein which in humans is encoded by the ABCA1 gene (Luciani, M. F. et al., Genomics. 1994. 21: 150-9). This transporter is a major regulator of cellular cholesterol and phospholipid homeostasis. Apolipoprotein A-I is a protein that in humans is encoded by the APOA1 gene (Breslow, J. L. et al., Proc. Natl. Acad. Sci. USA 1982. 79: 6861-5). Apolipoprotein A-I is the major protein component of HDL in plasma. The protein promotes cholesterol efflux from tissues to the liver for excretion. Scavenger receptor class B, type I (SR-BI) is an integral membrane protein found in numerous cell types/tissues, including the liver and adrenal (Acton, S. L. et al., J. Biol. Chem. 1994. 269: 21003-21009). It is best known for its role in facilitating the uptake of cholesteryl esters from high-density lipoproteins in the liver. Therefore, all three genes have a role in HDL regulation.
The primer probe set RTS1204 (forward sequence […], designated herein as SEQ ID NO: 122, reverse sequence […], designated herein as SEQ ID NO: 123, probe sequence AGGCCCAGACCTGTAAAGGCGAAGX, with X a fluorophore, designated herein as SEQ ID NO: 124) was used to measure abca1 levels. The primer probe set RTS14737 (forward sequence […], designated herein as SEQ ID NO: 125, reverse sequence […], designated herein as SEQ ID NO: 126, probe sequence CTGCAGGAACGGCTGGGCCCX, with X a fluorophore, designated herein as SEQ ID NO: 127) was used to measure apoA1 levels. The primer probe set mSRB-1 (forward sequence […], designated herein as SEQ ID NO: 128, reverse sequence ATGCGACTTGTCAGGCTGG, designated herein as SEQ ID NO: 129, probe sequence CGTGGAGAACCGCAGCCTCCATTX, with X a fluorophore, designated herein as SEQ ID NO: 130) was used to measure sr-b1 levels. The results are presented in Table 44 as percentage increase or decrease in the respective expression levels compared to the PBS control. Both primer probe sets produced similar results. The RNA expression levels were normalized to murine Cyclophilin. Treatment with ISIS 349517 caused an increase in ApoA1 and SR-B1 levels.

[1] = Effect on HDL composition in huCETP transgenic LDL receptor knockout mice (Example 10); assay type: in vivo; conditions: HDL fraction; for FC % (free cholesterol component of HDL) / PL % (phospholipid component of HDL) / Pro % (protein component of HDL) / TG % (triglyceride component of HDL) / CE % (cholesteryl ester component of HDL): CETP transgenic LDLr−/− mouse model; for CE % (cholesteryl ester component of HDL): calculated as (total cholesterol−free cholesterol)×1.67; for S/C Ratio: surface components (Pro, FC, PL) to core components (CE, TG)
Text: In human CETP transgenic mice, the bulk of the cholesterol in plasma is associated with HDL and, in this model, cholesteryl ester (CE) transferred from HDL to VLDL/LDL by CETP is rapidly cleared by the LDL receptor (LDLr) (Zhou, H. et al., Biochim Biophys. Acta. 1761: 14821488, 2006). The human CETP transgenic, LDLr knockout mouse model used in this example is an animal model for cardiovascular disease. In this model, clearance of LDL is delayed due to the absence of LDLr leading to the inability of the mice to clear CE via the LDL pathway (Plump, A. S. et al., Arterioscler. Thromb. Vasc. Biol. 19: 1105-1110, 1999). This human CETP transgenic, LDLr knockout mouse is helpful in assessing the effect of antisense inhibition of CETP on HDL composition as the model has a proatherogenic lipoprotein profile where most of the cholesterol is found in VLDL and LDL.
Male transgenic mice were maintained on a 12-hour light/dark cycle and were fed ad libitum the Western diet (TD88137; 42% cal from fat, 0.2% cholesterol; Harlan Laboratories, Indianapolis, Ind.). Animals were acclimated for at least 7 days in the research facility before initiation of the experiment and were maintained on this diet throughout the study period. Antisense oligonucleotides (ASOs) were prepared in buffered saline (PBS) and sterilized by filtering through a 0.2 micron filter. Oligonucleotides were dissolved in 0.9% PBS for injection.
Another group received subcutaneous injections of control oligonucleotide ISIS 141923 at a dose of 15 mg/kg/week for 6 weeks. One group of mice received subcutaneous injections of PBS for 6 weeks. The PBS-injected group served as the control group to which treatment groups were compared.
At the end of the treatment period, plasma samples were taken for further analysis.
The VLDL+IDL, LDL and HDL lipoprotein sub-fractions were separated by ultracentrifugation, based on their relative densities. Pooled plasma samples from all the groups of […] each was added to a 2 mL Beckman Quick-Seal centrifuge tube and the density adjusted to 1.019 g/mL with potassium bromide (KBr). The samples were then spun in a Beckman TL-100 ultracentrifuge for 4 hours at 100,000 rpm at 4 degrees Celsius. The top of the tube containing the VLDL+IDL sub-fraction was sliced off and collected.
The bottom fraction was collected in a new tube; the density was re-adjusted to 1.063 g/ml with KBr and re-spun at 100,000 rpm at 4 degrees Celsius for 5 hours to concentrate the LDL sub-fraction. The top of the tube containing the LDL sub-fraction was collected. Once again, the bottom fraction was placed in a new tube and the density was now adjusted to 1.21 g/ml with KBr to concentrate the HDL sub-fraction. The tubes were spun at 100,000 rpm at 4 degrees Celsius for 6 hours. The HDL sub-fraction was finally collected. All of the lipoprotein sub-fractions were dialyzed overnight in PBS to remove excess KBr.
The sub-fractions were then assayed for total cholesterol and triglyceride (TG) using enzymatic assays from Roche (Basel, Switzerland). Phospholipid (PL) and free cholesterol (FC) were measured using enzymatic assays from Wako Chemicals USA (Richmond, Va.). Protein (Pro) concentration was measured by Fisher Scientific's BCA assay (Pittsburgh, Pa.). Cholesteryl ester (CE) was calculated as (total cholesterol−free cholesterol)×1.67 (CE is cholesterol plus a fatty acid, the 1.67 adjustment takes into account the increase in mass the fatty acid will add (Rudel L L et al, JCI 100 (1); 74-83)). The S/C ratio is the ratio of the surface components (Pro, FC, and PL) to the core components (CE and TG).
Additionally, the S/C ratio is increased, indicating a shift to a smaller HDL particle, after antisense oligonucleotide inhibition of CETP. Accordingly, in this model, inhibiting the CETP-mediated transfer of TG to HDL, and CE from HDL, leads to the formation of smaller, denser, and CE rich HDL.

Row | Substance | SR-B1 levels (liver mRNA) (SR-B1; huCETP transgenic mice, Western diet) | Percent inhibition of liver mRNA expression, SR-B1 (SR-B1; Dose 1.5 mg/kg/wk) | Percent inhibition of liver mRNA expression, SR-B1 (SR-B1; Dose 5 mg/kg/wk) | Percent inhibition of liver mRNA expression, SR-B1 (SR-B1; Dose 15 mg/kg/wk) | Percent inhibition of liver mRNA expression, SR-B1 (SR-B1; Dose 50 mg/kg/wk) | FC % (free cholesterol component of HDL) [1] | PL % (phospholipid component of HDL) [1] | Pro % (protein component of HDL) [1] | TG % (triglyceride component of HDL) [1] | CE % (cholesteryl ester component of HDL) [1] | S/C Ratio [1]
1 | ISIS 349517: 5-10-5 MOE gapmer CAGCACTTTAATGCCAGTGG (sugars from the 5' end e5 d10 e5, backbone and methylation of C not given here) | increase | +33% | +34% | +50% | +42% | 2.1% | 15.6% | 31.3% | 12.8% | 38.1% | 0.96
2 | ISIS 141923: CCTTCCCTGAAGGTTCCTCC, 5-10-5 MOE gapmer, a control oligonucleotide which has no known murine target (sugars from the 5' end e5 d10 e5, backbone and methylation of C not given here) [reference compound] |  |  |  |  | +37% | 3.1% | 8.4% | 24.8% | 47.1% | 16.6% | 0.57
